Data reported in the supplement of paper PMC11208160.

Assay: recombinant UMI read abundance after kanamycin selection (control-corrected) (log10(CPM+1)); higher = more efficient recombination; extreme values may be limits of the assay; sequences stand for … in AGTGCAGAGAAAATCGGCCAGTTTTCTCTGCCTGCAGTCCGCATGCCGTGGGACCCCTTGGGTTCTAACCTGTTGCCTAGATTTATGCAGCGGACTGCCTTTCTCCCAAAGTGATAAACCGG…AGGTTGGTTTCACT; site = the 11-nt donor
Description: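 Pooled E. coli donor-specificity screen for the IS621 bridge recombinase. Each library member carries a reprogrammed 11-nt donor and a full-length LE bridge RNA expressed in cis from the natural promoter, with a paired donor-binding loop (8-nt LDG + 4-nt RDG) and a target-binding loop fixed to T5. It is co-electroporated with a T5 target plasmid; recombinase is induced with 0.07 mM IPTG and recombinants are selected on kanamycin. UMIs are counted as CPM, averaged over two biological replicates and corrected by the unselected control. Molecule = full bridge RNA written as DNA, built from the T5 scaffold: LDG = donor specificity nt 1-8, RDG = reverse complement of nt 8-11.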
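Further: IS621 bridge recombinase in Escherichia coli cells against a fixed T5 target plasmid.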

Sequence | recombinant UMI read abundance (log10)
AATGCAGCATGGACCGGTTTTCCCGGTAATCCGTATTTGAA (site AATGCAGCTTT) | 0.709
AATGGAACATGGACCGGTTTTCCCGGTAATCCGTATTTGCT (site AATGAAACTAG) | 0.482
AATGGAACATGGACCGGTTTTCCCGGTAATCCGTATTTGCT (site AATGCAACTAG) | 1.05
AATGGAACATGGACCGGTTTTCCCGGTAATCCGTATTTGCT (site AATGGAACTAG) | 2.12
AATGGAACATGGACCGGTTTTCCCGGTAATCCGTATTTGCT (site AATGTAACTAG) | 1.78
AATGGATCATGGACCGGTTTTCCCGGTAATCCGTATTTGAA (site AATGGATCTTT) | 2.07
AATGTACCATGGACCGGTTTTCCCGGTAATCCGTATTTGCG (site AATGTACCTCG) | 0.0178
AATGTCACATGGACCGGTTTTCCCGGTAATCCGTATTTGCT (site AATGTAACTAG) | 0.799
AATGTCACATGGACCGGTTTTCCCGGTAATCCGTATTTGCT (site AATGTCACTAG) | 2.41
AATGTCACATGGACCGGTTTTCCCGGTAATCCGTATTTGCT (site AATGTGACTAG) | 0.0645
AATGTCACATGGACCGGTTTTCCCGGTAATCCGTATTTGCT (site AATGTTACTAG) | 0.647
AATGTCTCATGGACCGGTTTTCCCGGTAATCCGTATTTGAC (site AATGTATCTGT) | 1.32
AATGTCTCATGGACCGGTTTTCCCGGTAATCCGTATTTGAC (site AATGTCTCTGT) | 2.21
AATGTCTCATGGACCGGTTTTCCCGGTAATCCGTATTTGAC (site AATGTGTCTGT) | 0
AATGTCTCATGGACCGGTTTTCCCGGTAATCCGTATTTGAC (site AATGTTTCTGT) | 0
AATGTGACATGGACCGGTTTTCCCGGTAATCCGTATTTGAC (site AATGTGACTGT) | 2.69
AATGTGACATGGACCGGTTTTCCCGGTAATCCGTATTTGAC (site AATGTGCCTGT) | 0
AATGTGACATGGACCGGTTTTCCCGGTAATCCGTATTTGAC (site AATGTGGCTGT) | 1.01
AATGTGACATGGACCGGTTTTCCCGGTAATCCGTATTTGAC (site AATGTGTCTGT) | 0
AATGTGGCATGGACCGGTTTTCCCGGTAATCCGTATTTGAC (site AATGTGACTGT) | 1.16
AATGTGGCATGGACCGGTTTTCCCGGTAATCCGTATTTGAC (site AATGTGCCTGT) | 0.00397
AATGTGGCATGGACCGGTTTTCCCGGTAATCCGTATTTGAC (site AATGTGGCTGT) | 1.81
AATGTGGCATGGACCGGTTTTCCCGGTAATCCGTATTTGAC (site AATGTGTCTGT) | 0.451
AATGTGTCATGGACCGGTTTTCCCGGTAATCCGTATTTGGC (site AATGTGTCTGA) | 0

Sequence | recombinant UMI read abundance (log10)
AATGTGTCATGGACCGGTTTTCCCGGTAATCCGTATTTGGC (site AATGTGTCTGC) | 2.67
AATGTGTCATGGACCGGTTTTCCCGGTAATCCGTATTTGGC (site AATGTGTCTGG) | 0.957
AATGTGTCATGGACCGGTTTTCCCGGTAATCCGTATTTGGC (site AATGTGTCTGT) | 1.99
AATGTTTCATGGACCGGTTTTCCCGGTAATCCGTATTTGAC (site AATGTATCTGT) | 1.73
AATGTTTCATGGACCGGTTTTCCCGGTAATCCGTATTTGAC (site AATGTCTCTGT) | 0
AATGTTTCATGGACCGGTTTTCCCGGTAATCCGTATTTGAC (site AATGTGTCTGT) | 0
AATGTTTCATGGACCGGTTTTCCCGGTAATCCGTATTTGAC (site AATGTTTCTGT) | 0
AATTAAACATGGACCGGTTTTCCCGGTAATCCGTATTTGTA (site AATTAAACTTA) | 0.643
AATTAAACATGGACCGGTTTTCCCGGTAATCCGTATTTGTT (site AATTAAACTAA) | 0.00778
AATTAATCATGGACCGGTTTTCCCGGTAATCCGTATTTGAT (site AATTAATCTAT) | 1.47
AATTAGGCATGGACCGGTTTTCCCGGTAATCCGTATTTGGG (site AATTAGGCTCC) | 0.0811
AATTATACATGGACCGGTTTTCCCGGTAATCCGTATTTGGA (site AATTATACTTC) | 0.828
AATTATACATGGACCGGTTTTCCCGGTAATCCGTATTTGGA (site AATTATCCTTC) | 0.0125
AATTATACATGGACCGGTTTTCCCGGTAATCCGTATTTGGA (site AATTATGCTTC) | 0.476
AATTATACATGGACCGGTTTTCCCGGTAATCCGTATTTGGA (site AATTATTCTTC) | 0.335
AATTATGCATGGACCGGTTTTCCCGGTAATCCGTATTTGAA (site AATTATGCTTA) | 0.0142
AATTATGCATGGACCGGTTTTCCCGGTAATCCGTATTTGAA (site AATTATGCTTC) | 0.0246
AATTATGCATGGACCGGTTTTCCCGGTAATCCGTATTTGAA (site AATTATGCTTG) | 0
AATTATGCATGGACCGGTTTTCCCGGTAATCCGTATTTGAA (site AATTATGCTTT) | 0.313
AATTATGCATGGACCGGTTTTCCCGGTAATCCGTATTTGGG (site AATTATGCTAC) | 0.00898
AATTATGCATGGACCGGTTTTCCCGGTAATCCGTATTTGGG (site AATTATGCTCC) | 0.388
AATTATGCATGGACCGGTTTTCCCGGTAATCCGTATTTGGG (site AATTATGCTGC) | 0
AATTATGCATGGACCGGTTTTCCCGGTAATCCGTATTTGGG (site AATTATGCTTC) | 0.0224
AATTATGCATGGACCGGTTTTCCCGGTAATCCGTATTTGTA (site AATTATGCTTA) | 1.02

Sequence | recombinant UMI read abundance (log10)
AATTATGCATGGACCGGTTTTCCCGGTAATCCGTATTTGTA (site AATTATGCTTC) | 0.0111
AATTATGCATGGACCGGTTTTCCCGGTAATCCGTATTTGTA (site AATTATGCTTG) | 0.00449
AATTATGCATGGACCGGTTTTCCCGGTAATCCGTATTTGTA (site AATTATGCTTT) | 0.0175
AATTGGGCATGGACCGGTTTTCCCGGTAATCCGTATTTGAT (site AATTGGGCTAT) | 0.68
AATTTGGCATGGACCGGTTTTCCCGGTAATCCGTATTTGTG (site AATTTGGCTCA) | 0.122
AATTTGGCATGGACCGGTTTTCCCGGTAATCCGTATTTGTG (site CATTTGGCTCA) | 0.00721
AATTTGGCATGGACCGGTTTTCCCGGTAATCCGTATTTGTG (site GATTTGGCTCA) | 0.011
AATTTGGCATGGACCGGTTTTCCCGGTAATCCGTATTTGTG (site TATTTGGCTCA) | 0.187
AATTTGTCATGGACCGGTTTTCCCGGTAATCCGTATTTGAT (site AATTTGTCTAT) | 0.517
ACAAGGACATGGACCGGTTTTCCCGGTAATCCGTATTTGTT (site ACAAGGACTAA) | 2.32
ACAAGTCCATGGACCGGTTTTCCCGGTAATCCGTATTTGTC (site ACAAGTCCTGA) | 0
ACACAGCCATGGACCGGTTTTCCCGGTAATCCGTATTTGTC (site ACACAGCCTGA) | 0
ACACATCCATGGACCGGTTTTCCCGGTAATCCGTATTTGAC (site AAACATCCTGT) | 0
ACACATCCATGGACCGGTTTTCCCGGTAATCCGTATTTGAC (site ACAAATCCTGT) | 0
ACACATCCATGGACCGGTTTTCCCGGTAATCCGTATTTGAC (site ACACAACCTGT) | 0
ACACATCCATGGACCGGTTTTCCCGGTAATCCGTATTTGAC (site ACACACCCTGT) | 0.501
ACACATCCATGGACCGGTTTTCCCGGTAATCCGTATTTGAC (site ACACAGCCTGT) | 0.424
ACACATCCATGGACCGGTTTTCCCGGTAATCCGTATTTGAC (site ACACATACTGT) | 0.457
ACACATCCATGGACCGGTTTTCCCGGTAATCCGTATTTGAC (site ACACATCCTAT) | 0.0886
ACACATCCATGGACCGGTTTTCCCGGTAATCCGTATTTGAC (site ACACATCCTCT) | 0.265
ACACATCCATGGACCGGTTTTCCCGGTAATCCGTATTTGAC (site ACACATCCTGA) | 0
ACACATCCATGGACCGGTTTTCCCGGTAATCCGTATTTGAC (site ACACATCCTGC) | 0
ACACATCCATGGACCGGTTTTCCCGGTAATCCGTATTTGAC (site ACACATCCTGG) | 0
ACACATCCATGGACCGGTTTTCCCGGTAATCCGTATTTGAC (site ACACATCCTGT) | 1.22
